Measurements: PMC12746157, “Light-Regulated Agonists Spatiotemporally Activating the Vitamin D Receptor Mitigate Psoriasis-like Inflammation in Mice without Inducing Hypercalcemia” (ACS Central Science, 2025)

Assays:
[1] = Proportions of cis and trans at the photostationary state in DMSO from absorbance spectra (Ernst Fischer method); format: physicochemical
Method: 2. Photochemical characterization.
A 50 µM solution of each compound in DMSO was dispensed into a transparent 96-well plate (200 µL per well). The absorption spectra were recorded from 300 to 600 nm with 2 nm fixed intervals using a Tecan Spark 20M Multimode microplate reader. Initial measurements were performed in the dark, followed by spectra acquired immediately after each 3 min period of light irradiation at different wavelengths using 96-well LED array plates (LEDA Teleopto). Theoretical absorbance spectra corresponding to the pure cis isomer (100%) of each compound were calculated in order to obtain the theoretical percentage of cis isomer at each wavelength, according to the method described by Ernst Fischer (1967). […]
Table S6. Proportions of cis and trans at the photostationary state in DMSO. […]

VDR = VDR (Homo sapiens, UniProt P11473); test: Luminescent proximity homogeneous assay (AlphaScreen): interaction of purified VDR, RxR and TRAP220 coactivator fragment; format: biochemical; conditions: after illumination (365 nm) for 3 min, mean ± SEM; for EC50: n >= 3, read-out: Activity (pEC50) (converted); for Emax: normalized to maximum response of LSN2148936 (100%)
Method: The activity of all molecules was evaluated using a luminescent proximity homogeneous assay to study interactions between purified VDR, RxR and a fragment of the transcriptional coactivator TRAP220 (Supporting Information). This method allowed us to monitor the interaction between TRAP220 and the activated VDR-RxR heterodimer, which is of mechanistic and physiological significance. Both the activation of VDR and the VDR-RxR heterodimer formation are necessary to promote the whole complex association. This system efficiently includes conformational events of the receptor upon activation that go beyond a simple binding measurement. […]
The activity of all molecules was evaluated using an in-vitro luminescent proximity homogeneous assay by using the Alphascreen technology (Cat No. 6760619R, Perkin Elmer, now Revvity). In a transparent 96-well preplate, 10X concentrations of the compounds were prepared in assay buffer (0.1% bovine serum albumin, 2 mM 1,4-dithiothreitol, 25 mM HEPES and 100 mM NaCl; pH 7.3). LSN2148936 was used as positive control. Purified histidine-tagged VDR (44 µM), flag-RxRa (5.7 µM), biotin tagged TRAP220 transcriptional coactivator (500 µM), and the donor and acceptor beads from the AlphaScreen kit (2 µL/mL each), were diluted in assay buffer. In the dark, 6 µL/well of each test compound were pipetted on a white, shallow 96-well ProxiPlateTM […]
(Perkin Elmer, now Revvity, Cat.No. 6006290) in duplicate. Immediately, 54 µL of the protein solution were added and the plate was covered and incubated for 30 min at room temperature in the dark. Meanwhile, the plate with the 10X dilutions was illuminated at 365 nm for 3 min in a 96-well DED array plate (LEDA Teleopto), to allow the photoconversion of the molecules to their cis configuration. The illuminated compounds were mixed with the protein solution and incubated as described above for the plate in the dark. After the incubation time, the counts of both, the dark and illuminated plates, were measured in a Tecan Spark 20M Multimode plate reader with defined settings (excitation: 680 nm, emission: 520-620 nm, excitation time: 100ms, integration time: 300 ms). Biotinylated-His6 peptide (PerkinElmer) was used as a quality control reagent for AlphaScreen® assays and to evaluate compound interaction with the method. The raw data were normalized to the effect of the buffer (0%) and the maximum response obtained with LSN2148936 (100%). Dose-response curves and EC50 values were calculated with Graphpad software. Each experiment was performed in triplicate, with 2 replicates per plate.
4. Hydrogen/deuterium exchange coupled to mass spectrometry (HDX-MS)
The HDX-MS experiments were performed with an in-house automated modular system interfaced with an Orbitrap Exploris 480 mass spectrometer.1 Two inter-day experiments were conducted: one in the dark (first day) and one illuminated with 365 nm light (second day). Sample preparation and on-exchange reactions were performed on opaque plates (VWR® Real-Time […]
mm, Part Nº BC5226) light source was positioned above the Tecan system used for sample preparation. The distance between the UV light and the opaque plates was 80 cm. The 365 nm light illuminated the sample preparation process and the on-exchange reaction on the second day.
A 10 µM VDR-LBD protein stock solution was prepared in 20 mM HEPES buffer (with 150 mM NaCl, 10 mM D-L Methionine and 5 mM DTT) at pH 7.5. The compound 11b was prepared at 10 mM in DMSO. The protein: compound-complex (1:10 molar ratio) was pre-incubated for 1h before the first on-exchange reaction. The HDX reaction was initiated by a 5-fold dilution of the protein stock solution, in the presence and absence of compound 11b, in the corresponding Deuterated buffer at room temperature. Samples were prepared in parallel with three replicates of […]
time point, HDX reactions were quenched with a solution of 3 M Urea and 1% TFA (pH 2.5) followed by online proteolysis with an in-house Pepsin immobilized column and desalting […]

VDR, sequence (P11473 whole entry, the tested form may be a part): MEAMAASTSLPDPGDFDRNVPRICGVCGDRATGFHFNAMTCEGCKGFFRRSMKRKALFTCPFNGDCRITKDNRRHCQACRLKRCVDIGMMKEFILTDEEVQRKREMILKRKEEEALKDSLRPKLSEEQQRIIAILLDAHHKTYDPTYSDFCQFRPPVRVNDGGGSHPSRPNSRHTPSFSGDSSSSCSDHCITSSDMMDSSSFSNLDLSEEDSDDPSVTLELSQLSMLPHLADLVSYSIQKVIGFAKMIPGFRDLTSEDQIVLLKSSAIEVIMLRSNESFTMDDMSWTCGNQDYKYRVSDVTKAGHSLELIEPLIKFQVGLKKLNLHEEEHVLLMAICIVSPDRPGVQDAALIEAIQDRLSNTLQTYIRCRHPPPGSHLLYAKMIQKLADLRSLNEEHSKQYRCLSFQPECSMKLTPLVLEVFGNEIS
VDR, sequence (P19793 whole entry partner, the tested form may be a part): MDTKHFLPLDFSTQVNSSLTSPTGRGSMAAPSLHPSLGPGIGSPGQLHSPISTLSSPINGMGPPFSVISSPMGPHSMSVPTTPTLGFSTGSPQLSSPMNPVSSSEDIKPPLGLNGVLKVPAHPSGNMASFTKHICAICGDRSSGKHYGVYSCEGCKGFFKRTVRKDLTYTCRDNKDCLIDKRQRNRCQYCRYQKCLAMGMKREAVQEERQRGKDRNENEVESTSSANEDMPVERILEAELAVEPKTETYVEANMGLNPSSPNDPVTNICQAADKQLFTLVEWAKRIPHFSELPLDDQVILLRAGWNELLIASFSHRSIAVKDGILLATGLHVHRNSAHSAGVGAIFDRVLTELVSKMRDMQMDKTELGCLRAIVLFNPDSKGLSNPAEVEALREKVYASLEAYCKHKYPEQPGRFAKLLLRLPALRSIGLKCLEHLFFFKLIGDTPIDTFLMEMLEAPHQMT
VDR, sequence (Q15648 whole entry partner, the tested form may be a part): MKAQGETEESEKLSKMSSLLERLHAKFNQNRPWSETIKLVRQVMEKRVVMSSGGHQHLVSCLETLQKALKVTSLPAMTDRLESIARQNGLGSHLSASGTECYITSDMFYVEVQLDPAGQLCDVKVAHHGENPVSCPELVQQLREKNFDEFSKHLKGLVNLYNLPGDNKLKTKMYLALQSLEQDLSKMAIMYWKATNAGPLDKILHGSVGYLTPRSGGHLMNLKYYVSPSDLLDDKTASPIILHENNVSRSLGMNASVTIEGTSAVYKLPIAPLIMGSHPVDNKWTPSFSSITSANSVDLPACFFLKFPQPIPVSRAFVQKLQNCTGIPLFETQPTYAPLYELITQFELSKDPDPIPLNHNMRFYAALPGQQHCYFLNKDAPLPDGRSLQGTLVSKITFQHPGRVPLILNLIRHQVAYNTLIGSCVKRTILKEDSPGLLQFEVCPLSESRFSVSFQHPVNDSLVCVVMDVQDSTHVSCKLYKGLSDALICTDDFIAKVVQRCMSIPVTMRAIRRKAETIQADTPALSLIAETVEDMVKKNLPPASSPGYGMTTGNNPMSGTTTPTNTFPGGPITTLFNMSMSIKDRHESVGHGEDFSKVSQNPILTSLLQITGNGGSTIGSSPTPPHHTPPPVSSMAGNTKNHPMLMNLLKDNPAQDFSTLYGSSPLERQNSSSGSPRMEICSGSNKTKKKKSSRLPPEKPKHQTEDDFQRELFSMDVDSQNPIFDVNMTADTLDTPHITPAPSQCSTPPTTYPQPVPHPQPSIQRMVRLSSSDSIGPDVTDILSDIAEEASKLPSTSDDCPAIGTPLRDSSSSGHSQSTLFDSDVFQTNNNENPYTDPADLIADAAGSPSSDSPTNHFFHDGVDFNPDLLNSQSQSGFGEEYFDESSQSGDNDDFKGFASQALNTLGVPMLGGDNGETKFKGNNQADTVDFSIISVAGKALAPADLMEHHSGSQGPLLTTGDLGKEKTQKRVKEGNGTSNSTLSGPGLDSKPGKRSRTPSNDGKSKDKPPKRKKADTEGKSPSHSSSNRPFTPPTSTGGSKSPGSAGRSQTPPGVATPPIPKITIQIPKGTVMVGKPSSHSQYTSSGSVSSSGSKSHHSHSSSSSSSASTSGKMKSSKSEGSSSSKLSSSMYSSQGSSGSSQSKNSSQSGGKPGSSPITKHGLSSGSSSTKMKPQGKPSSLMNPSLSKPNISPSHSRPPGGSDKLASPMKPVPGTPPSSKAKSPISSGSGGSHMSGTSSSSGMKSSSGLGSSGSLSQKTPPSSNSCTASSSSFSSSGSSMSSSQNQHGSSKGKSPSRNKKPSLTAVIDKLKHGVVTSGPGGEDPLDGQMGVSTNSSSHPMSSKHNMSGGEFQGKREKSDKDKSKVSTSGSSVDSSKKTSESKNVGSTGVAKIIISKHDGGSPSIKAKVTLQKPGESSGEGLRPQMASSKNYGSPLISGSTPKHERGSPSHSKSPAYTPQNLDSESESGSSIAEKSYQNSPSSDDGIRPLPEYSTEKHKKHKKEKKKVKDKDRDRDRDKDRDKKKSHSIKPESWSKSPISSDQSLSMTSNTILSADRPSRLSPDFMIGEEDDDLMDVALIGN

Row | %cis at the photostationary state ([1]; 365 nm) | %trans at the photostationary state ([1]; 365 nm) | %cis at the photostationary state ([1]; 380 nm) | %trans at the photostationary state ([1]; 380 nm) | %cis at the photostationary state ([1]; 405 nm) | %trans at the photostationary state ([1]; 405 nm) | %cis at the photostationary state ([1]; 420 nm) | %trans at the photostationary state ([1]; 420 nm) | %cis at the photostationary state ([1]; 470 nm) | %trans at the photostationary state ([1]; 470 nm) | %cis at the photostationary state ([1]; 500 nm) | %trans at the photostationary state ([1]; 500 nm) | %cis at the photostationary state ([1]; 530 nm) | %trans at the photostationary state ([1]; 530 nm) | EC50 (VDR) | Emax (VDR) | SMILES
1 | 96,79% | 3,21% | 95,58% | 4,42% | 61,42% | 38,58% | 54,69% | 45,31% | 28,11% | 71,89% | 29,74% | 70,26% | 25,59% | 74,41% | 209 nM | 93 ± 6.73% | Cc1cc(OCC(O)C(C)(C)C)ccc1/N=N/c1cccc(-c2ccc(C(=O)O)cc2C)c1 (stereo not drawn) [Compound 11d]
2 | 97,26% | 2,74% | 96,48% | 3,52% | 66,00% | 34,00% | 62,72% | 37,28% | 34,89% | 65,11% | 35,65% | 64,35% | 31,97% | 68,03% | 100 nM | 44 ± 0.66% | COC(=O)c1ccc(-c2cccc(/N=N/c3ccc(OCC(O)C(C)(C)C)cc3C)c2)cc1 (stereo not drawn) [Compound 10b]
3 | 96,30% | 3,70% | 95,32% | 4,68% | 62,22% | 37,78% | 59,99% | 40,01% | 29,82% | 70,18% | 25,21% | 74,79% | 20,03% | 79,97% | 813 nM | 30 ± 1.71% | COC(=O)c1ccc(-c2cccc(/N=N/c3ccc(OCC(O)C(C)(C)C)cc3C)c2)c(C)c1 (stereo not drawn) [Compound 10d]
